The text below walks through data of patent US11638702B2, “Glyceryl 3-hydroxybutyrates for traumatic brain injury” (NeuroEnerygy Ventures, Inc., priority 2017, dated 2023).

In test [1] the test system is traumatic brain injury (TBI) patients. As to the kind of experiment: Group comparisons of TBI patients / military personnel given glyceryl tris(3-hydroxybutyrate) versus matched patients. The format is in vivo, human. How it is done:
The patients are followed up approximately 6 months, after the TBI.
Military personnel having closed TBIs due to vehicular accidents or IEDs or other battlefield causes are evaluated for the severity of their TBIs and, where glyceryl tris(3-hydroxybutyrate) is available for administration, are started on a regimen of […] in 2 or 3 divided doses for 7 days (which regimen is generally started within 2 or 3 hours of injury) and then re-evaluated at day 7 to assess whether further treatment for the TBI is warranted. These are compared with comparably injured military personnel where access to the glyceryl tris(3-hydroxybutyrate) was not available for administration within the first week after injury.
In light of Example 10, combat troops and medics associated therewith are provided with glyceryl tris(3-hydroxybutyrate) to take into the field for use in triage in the case of mild-moderate closed TBI situations.
In light of Examples 10 and 11, combat troops are routinely given a morning dose of glyceryl tris(3-hydroxybutyrate) while in combat zones in case they suffer a mild to moderate non-penetrating closed TBI. For those troops that do suffer such TBIs within 12 hours of administration, their recovery, both acutely and longer term, is improved as compared to those only receiving the glyceryl tris(3-hydroxybutyrate) administration upon injury, after being matched for injury severity. Similar comparatives between those getting variously identical regimens of glyceryl tris(3-hydroxybutyrate) post-injury other than the single prophylactic dose prior to injury, with those receiving the preinjury dose faring better than those not receiving it, and further those whose injury is closer in time to the administration (1-2 hours post administration) faring better than those being injured further in time form the administration (10-12 hours post-administration).

The test system is the same in test [2]. Description: Oral glyceryl tris(3-hydroxybutyrate) with standard non-restricted diet in individual TBI patients (case examples). The format is in vivo, human. The settings on record: for Clinical status at follow-up: day 7 of regimen. How it is done: A 60 kg person presents with TBI due to a minor car accident. On initial examination, within 1 hour of the accident, moderate TBI is determined by EMT at the scene, on the basis disorientation and of the Glasgow Coma Scale (9-13). The patient is conscious, is hyperglycemic and able to orally ingest the ester. The patient is started on 0.5 g/kg/day glyceryl tris(3-hydroxybutyrate) orally in 3 divided doses (i.e., 10 g per serving 3 times a day). The patient is transported to a medical facility and allowed to ingest a standard diet lunch, having no glucogenic caloric restriction. […] The patient completes the regimen.
A 70 kg (boxer) presents with a sports injury concussion after having a history of 3 similar concussions over the past year. The past concussions are treated by standard medical practice without the use of ketogenic diet, starvation, or the esters of use in the present invention. The most recent concussive injury occurs 2 hours before the patient being brought into a hospital for treatment. The patient is immediately examined and determined to be hyperglycemic and to have a moderate concussive injury (on the basis of short term loss of consciousness, their lingering disorientation, and a Glasgow Coma Scale score of 9-13). The patient is started on 2.0 g/kg/day glyceryl tris(3-hydroxybutyrate) in three divided dose (i.e.. 46.7 g per serving 3 times a day) and permitted an ordinary standard oral diet not having glucogenic caloric restrictions for a 70 kg person. Treatment continues for 3 days.
The patient in Example 3, knowing that further concussive incidents are likely requests advice as to minimizing the effects of further concussive incidents. The patient is told to restart the glyceryl tris(3-hydroxybutyrate) regimen at least one meal period before partaking in the activity likely to result in a concussive injury. The patient has such serving at a 5 PM dinner and is in a match at 7 PM. The patient does in fact suffer a further TBI which once again is upon examination at the scene is determined to be a moderate TBI, however, the patient is euglycemic. On transport to a medical facility, the patient is re-examined and confirm that they have suffered another moderate TBI. The patient is started on 2.0 g/kg/day glyceryl tris(3-hydroxybutyrate) in three divided doses 46.7 g per serving 3 times a day) and permitted an ordinary standard oral diet not having glucogenic caloric restrictions for a 70 kg person. […] The patient is advised to continue with the glyceryl tris(3-hydroxybutyrate) regimen as in Example 3 for 6 days and return for re-evaluation. The patient maintains the regimen for 3 days instead of the recommended 6 and reports no adverse or lingering effects from the TBI.
The patients in Examples 2, 4, and 5 on re-evaluation are immediately started on the regimens referred to in Examples 1, 3, and 3 respectively for 7 days, and directed to return for re-evaluation on the 7th day of the newly started regimen. […] However, the improvement is not as complete as the patients in Examples 1 or 3.
A 30 kg child is brought to the emergency room with moderate to severe TBI (as per the Modified Glasgow Coma Scale) due to a playground fall, is hyperglycemic, is unconscious, is intubated, and begun on a regimen of 30 g twice daily of glyceryl tris(3-hydroxybutyrate) and further fed standard normal enteral diet. The regimen is continued for 7 days and re-evaluated at that time. […] The treatment is continued, with re-evaluation set for 7 days later.

For `CC(O)CC(=O)OCC(COC(=O)CC(C)O)OC(=O)CC(C)O` (stereo not drawn) [glyceryl tris(3-hydroxybutyrate)], the “Long term effects of TBI” value in test [1] (Example 9: moderate TBI, given with normal meals 2 or 3 times a day for one or two weeks, follow-up approximately 6 months after TBI, vs ketogenic diet or starvation) was “minimal, if not non-existent”. For the same compound, the “Recovery from acute symptoms and long-term post-concussive syndrome symptoms vs those not receiving it” value in test [1] (Example 10: military personnel, closed TBI, 0.5 mg/kg/day to 2.0 mg/kg/day in 2 or 3 divided doses for 7 days, started within 2 or 3 hours of injury) is recorded as “fare much better”. Also, the “Outcome vs treatment as in Example 10” value in test [1] (Example 11: mild-moderate closed TBI, given within minutes of suffering the TBI) is “fare even better”. Besides, the “Recovery, acutely and longer term, vs administration only upon injury” value in test [1] (Example 12: combat troops, morning prophylactic dose, TBI within 12 hours of administration, matched for injury severity) was “improved”. The Disorientation result in test [2] (Example 1: 60 kg female, moderate TBI (Glasgow Coma Scale 9-13), 0.5 g/kg/day orally in 3 divided doses, standard diet, after 2 days) was “recovered from their disorientation”. The “Clinical status at follow-up” value in test [2] (Example 1: 60 kg female, moderate TBI, 0.5 g/kg/day orally in 3 divided doses, normal meals) is recorded as “fully recovered”; in test [2] (Example 3: 70 kg male boxer, 2.0 g/kg/day in three divided doses, standard oral diet), “fully recovered”. In addition, the Glycemic status entry in test [2] (Example 1: patient hyperglycemic at presentation, 0.5 g/kg/day, from shortly after ester administration through end of treatment and beyond) is listed as “euglycemic”; in test [2] (Example 3: patient hyperglycemic at presentation, 2.0 g/kg/day, from shortly after ester administration through end of treatment), “euglycemic”. Also, in test [2] (Example 6: pre-injury serving, then 2.0 g/kg/day in three divided doses, the next day), the “Adverse effects of the TBI the next day” value is “no adverse effects”. Besides, the Symptoms on reexamination result in test [2] (Example 6: regimen maintained for 3 days instead of the recommended 6) is given as “no symptoms are seen”. In test [2] (Example 6: serving taken at 5 PM dinner before a 7 PM match (pre-injury dose), moderate TBI), the “Glycemic status at examination after further TBI” value is listed as “euglycemic”. The “Clinical status at end of treatment” value in test [2] (Example 8: 30 kg child, 30 g twice daily, after an additional 3 days of treatment) was “fully recovered”. Besides, the Consciousness result in test [2] (Example 8: 30 kg child, 30 g twice daily, day 4 of continued treatment) is listed as “regains consciousness”. In addition, the Clinical symptoms result in test [2] (Example 8: 30 kg child, moderate to severe TBI, unconscious, intubated, 30 g twice daily, standard enteral diet, after 7 days) is “show improvement, but are not yet in normal ranges”.
